Test results published in ChEMBL document CHEMBL1149819, “Synthesis and in vivo anti-mutagenic activity of novel melatonin derivatives” (2008).

Experiments:
Conditions in all cases: route intragastric
[1] = tested on: Mus musculus; assay: Antimutagenic activity in Albino mouse testes assessed as RNA level per gram of tissue at 18.38 mg/kg administered intragastrically for 1 week; assay type: functional, Testis
[2] = tested on: Mus musculus; assay: Antimutagenic activity against cyclophosphamide-induced mutagenicity in mouse brain assessed as peroxidase activity per microgram of tissue at 18.38 mg/kg administered intragastrically for 1 week; assay type: functional
[3] = tested on: Mus musculus; assay: Antimutagenic activity in Albino mouse brain assessed as DNA level per gram of tissue at 18.38 mg/kg administered intragastrically for 1 week; assay type: functional
[4] = tested on: Mus musculus; assay: Antimutagenic activity against cyclophosphamide-induced mutagenicity in mouse brain assessed as cholinesterase activity per microgram of tissue at 18.38 mg/kg administered intragastrically for 1 week; assay type: functional
[5] = tested on: Mus musculus; assay: Antimutagenic activity in Albino mouse liver assessed as DNA level per gram of tissue at 18.38 mg/kg administered intragastrically for 1 week; assay type: functional
[6] = tested on: Mus musculus; assay: Antimutagenic activity in mouse brain assessed as cholinesterase activity per microgram of tissue at 18.38 mg/kg administered intragastrically for 1 week; assay type: functional
[7] = tested on: Mus musculus; assay: Antimutagenic activity in Albino mouse kidney assessed as DNA level per gram of tissue at 18.38 mg/kg administered intragastrically for 1 week; assay type: functional
[8] = tested on: Mus musculus; assay: Antimutagenic activity in mouse kidney assessed as protein level per gram of tissue at 18.38 mg/kg administered intragastrically for 1 week; assay type: functional
[9] = tested on: Mus musculus; assay: Antimutagenic activity against cyclophosphamide-induced mutagenicity in Albino mouse brain assessed as RNA level per gram of tissue at 18.38 mg/kg administered intragastrically for 1 week; assay type: functional
[10] = tested on: Mus musculus; assay: Antimutagenic activity against cyclophosphamide-induced mutagenicity in mouse testes assessed as protein level per gram of tissue at 18.38 mg/kg administered intragastrically for 1 week; assay type: functional, Testis
[11] = tested on: Mus musculus; assay: Antimutagenic activity in Albino mouse kidney assessed as RNA level per gram of tissue at 18.38 mg/kg administered intragastrically for 1 week; assay type: functional
[12] = tested on: Mus musculus; assay: Antimutagenic activity against cyclophosphamide-induced mutagenicity in Albino mouse kidney assessed as RNA level per gram of tissue at 18.38 mg/kg administered intragastrically for 1 week; assay type: functional
[13] = tested on: Mus musculus; assay: Antimutagenic activity against cyclophosphamide-induced mutagenicity in mouse brain assessed as protein level per gram of tissue at 18.38 mg/kg administered intragastrically for 1 week; assay type: functional
[14] = tested on: Mus musculus; assay: Antimutagenic activity in mouse brain assessed as peroxidase activity per microgram of tissue at 18.38 mg/kg administered intragastrically for 1 week; assay type: functional
[15] = tested on: Mus musculus; assay: Antimutagenic activity in mouse brain assessed as protein level per gram of tissue at 18.38 mg/kg administered intragastrically for 1 week; assay type: functional
[16] = tested on: Mus musculus; assay: Antimutagenic activity against cyclophosphamide-induced mutagenicity in Albino mouse testes assessed as DNA level per gram of tissue at 18.38 mg/kg administered intragastrically for 1 week; assay type: functional, Testis
[17] = tested on: Mus musculus; assay: Antimutagenic activity against cyclophosphamide-induced mutagenicity in Albino mouse kidney assessed as DNA level per gram of tissue at 18.38 mg/kg administered intragastrically for 1 week; assay type: functional
[18] = tested on: Mus musculus; assay: Antimutagenic activity against cyclophosphamide-induced mutagenicity in Albino mouse liver assessed as DNA level per gram of tissue at 18.38 mg/kg administered intragastrically for 1 week; assay type: functional
[19] = tested on: Mus musculus; assay: Antimutagenic activity in Albino mouse testes assessed as DNA level per gram of tissue at 18.38 mg/kg administered intragastrically for 1 week; assay type: functional, Testis
[20] = tested on: Mus musculus; assay: Antimutagenic activity against cyclophosphamide-induced mutagenicity in mouse liver assessed as protein level per gram of tissue at 18.38 mg/kg administered intragastrically for 1 week; assay type: functional
[21] = tested on: Mus musculus; assay: Antimutagenic activity against cyclophosphamide-induced mutagenicity in Albino mouse testes assessed as RNA level per gram of tissue at 18.38 mg/kg administered intragastrically for 1 week; assay type: functional, Testis
[22] = tested on: Mus musculus; assay: Inhibition of cyclophosphamide-induced increase in micronuclei/polychromatic erythrocytes count in mouse at 14.16 mg/kg administered intragastrically for 1 week by micronuclei assay; assay type: functional; parameters: scale not given: the % may be the effect or the level left
[23] = tested on: Mus musculus; assay: Antimutagenic activity against cyclophosphamide-induced mutagenicity in Albino mouse liver assessed as RNA level per gram of tissue at 18.38 mg/kg administered intragastrically for 1 week; assay type: functional
[24] = tested on: Mus musculus; assay: Antimutagenic activity in Albino mouse liver assessed as RNA level per gram of tissue at 18.38 mg/kg administered intragastrically for 1 week; assay type: functional
[25] = tested on: Mus musculus; assay: Antimutagenic activity against cyclophosphamide-induced mutagenicity in Albino mouse brain assessed as DNA level per gram of tissue at 18.38 mg/kg administered intragastrically for 1 week; assay type: functional
[26] = tested on: Mus musculus; assay: Antimutagenic activity in Albino mouse brain assessed as RNA level per gram of tissue at 18.38 mg/kg administered intragastrically for 1 week; assay type: functional
[27] = tested on: Mus musculus; assay: Antimutagenic activity in mouse liver assessed as protein level per gram of tissue at 18.38 mg/kg administered intragastrically for 1 week; assay type: functional
[28] = tested on: Mus musculus; assay: Antimutagenic activity against cyclophosphamide-induced mutagenicity in mouse kidney assessed as protein level per gram of tissue at 18.38 mg/kg administered intragastrically for 1 week; assay type: functional
[29] = tested on: Mus musculus; assay: Antimutagenic activity in Albino mouse kidney assessed as DNA level per gram of tissue at 23.04 mg/kg administered intragastrically for 1 week; assay type: functional
[30] = tested on: Mus musculus; assay: Antimutagenic activity in mouse brain assessed as protein level per gram of tissue at 23.04 mg/kg administered intragastrically for 1 week; assay type: functional
[31] = tested on: Mus musculus; assay: Antimutagenic activity against cyclophosphamide-induced mutagenicity in mouse liver assessed as protein level per gram of tissue at 23.04 mg/kg administered intragastrically for 1 week; assay type: functional
[32] = tested on: Mus musculus; assay: Antimutagenic activity against cyclophosphamide-induced mutagenicity in Albino mouse testes assessed as RNA level per gram of tissue at 23.04 mg/kg administered intragastrically for 1 week; assay type: functional, Testis
[33] = tested on: Mus musculus; assay: Antimutagenic activity against cyclophosphamide-induced mutagenicity in Albino mouse brain assessed as DNA level per gram of tissue at 23.04 mg/kg administered intragastrically for 1 week; assay type: functional
[34] = tested on: Mus musculus; assay: Antimutagenic activity in mouse brain assessed as cholinesterase activity per microgram of tissue at 23.04 mg/kg administered intragastrically for 1 week; assay type: functional
[35] = tested on: Mus musculus; assay: Antimutagenic activity in Albino mouse testes assessed as RNA level per gram of tissue at 23.04 mg/kg administered intragastrically for 1 week; assay type: functional, Testis
[36] = tested on: Mus musculus; assay: Antimutagenic activity against cyclophosphamide-induced mutagenicity in Albino mouse kidney assessed as DNA level per gram of tissue at 23.04 mg/kg administered intragastrically for 1 week; assay type: functional
[37] = tested on: Mus musculus; assay: Antimutagenic activity against cyclophosphamide-induced mutagenicity in mouse testes assessed as protein level per gram of tissue at 23.04 mg/kg administered intragastrically for 1 week; assay type: functional, Testis
[38] = tested on: Mus musculus; assay: Antimutagenic activity against cyclophosphamide-induced mutagenicity in mouse kidney assessed as protein level per gram of tissue at 23.04 mg/kg administered intragastrically for 1 week; assay type: functional
[39] = tested on: Mus musculus; assay: Antimutagenic activity in Albino mouse liver assessed as DNA level per gram of tissue at 23.04 mg/kg administered intragastrically for 1 week; assay type: functional
[40] = tested on: Mus musculus; assay: Antimutagenic activity in Albino mouse liver assessed as RNA level per gram of tissue at 23.04 mg/kg administered intragastrically for 1 week; assay type: functional
[41] = tested on: Mus musculus; assay: Antimutagenic activity in Albino mouse brain assessed as DNA level per gram of tissue at 23.04 mg/kg administered intragastrically for 1 week; assay type: functional
[42] = tested on: Mus musculus; assay: Antimutagenic activity against cyclophosphamide-induced mutagenicity in Albino mouse brain assessed as RNA level per gram of tissue at 23.04 mg/kg administered intragastrically for 1 week; assay type: functional
[43] = tested on: Mus musculus; assay: Antimutagenic activity against cyclophosphamide-induced mutagenicity in Albino mouse kidney assessed as RNA level per gram of tissue at 23.04 mg/kg administered intragastrically for 1 week; assay type: functional
[44] = tested on: Mus musculus; assay: Antimutagenic activity against cyclophosphamide-induced mutagenicity in mouse brain assessed as peroxidase activity per microgram of tissue at 23.04 mg/kg administered intragastrically for 1 week; assay type: functional
[45] = tested on: Mus musculus; assay: Antimutagenic activity against cyclophosphamide-induced mutagenicity in Albino mouse testes assessed as DNA level per gram of tissue at 23.04 mg/kg administered intragastrically for 1 week; assay type: functional, Testis
[46] = tested on: Mus musculus; assay: Inhibition of cyclophosphamide-induced increase in micronuclei/polychromatic erythrocytes count in mouse at 23.04 mg/kg administered intragastrically for 1 week by micronuclei assay; assay type: functional; parameters: scale not given: the % may be the effect or the level left
[47] = tested on: Mus musculus; assay: Antimutagenic activity in Albino mouse brain assessed as RNA level per gram of tissue at 23.04 mg/kg administered intragastrically for 1 week; assay type: functional
[48] = tested on: Mus musculus; assay: Antimutagenic activity against cyclophosphamide-induced mutagenicity in Albino mouse liver assessed as RNA level per gram of tissue at 23.04 mg/kg administered intragastrically for 1 week; assay type: functional
[49] = tested on: Mus musculus; assay: Antimutagenic activity against cyclophosphamide-induced mutagenicity in Albino mouse liver assessed as DNA level per gram of tissue at 23.04 mg/kg administered intragastrically for 1 week; assay type: functional
[50] = tested on: Mus musculus; assay: Antimutagenic activity against cyclophosphamide-induced mutagenicity in mouse brain assessed as protein level per gram of tissue at 23.04 mg/kg administered intragastrically for 1 week; assay type: functional
[51] = tested on: Mus musculus; assay: Antimutagenic activity in Albino mouse kidney assessed as RNA level per gram of tissue at 23.04 mg/kg administered intragastrically for 1 week; assay type: functional
[52] = tested on: Mus musculus; assay: Antimutagenic activity in mouse liver assessed as protein level per gram of tissue at 23.04 mg/kg administered intragastrically for 1 week; assay type: functional
[53] = tested on: Mus musculus; assay: Antimutagenic activity in mouse brain assessed as peroxidase activity per microgram of tissue at 23.04 mg/kg administered intragastrically for 1 week; assay type: functional
[54] = tested on: Mus musculus; assay: Antimutagenic activity in Albino mouse testes assessed as DNA level per gram of tissue at 23.04 mg/kg administered intragastrically for 1 week; assay type: functional, Testis
[55] = tested on: Mus musculus; assay: Antimutagenic activity in mouse kidney assessed as protein level per gram of tissue at 23.04 mg/kg administered intragastrically for 1 week; assay type: functional
[56] = tested on: Mus musculus; assay: Antimutagenic activity against cyclophosphamide-induced mutagenicity in mouse brain assessed as cholinesterase activity per microgram of tissue at 23.04 mg/kg administered intragastrically for 1 week; assay type: functional

`COc1ccc2c(c1)c(CCNC(C)=O)c1sc(-c3sc(N)c(C#N)c3N)nn12` gave an Activity [1] of 0.27 mg, an Activity [2] of 4.1 U/min and an Activity [3] of 0.35 mg. The Activity [4] was 2.85 U, the Activity [5] was 0.33 mg and the Activity [6] was 3.76 U. The Activity [7] was 0.34 mg, the Activity [8] was 7.17 g and the Activity [9] was 0.16 mg. It also gave an Activity [10] of 3.11 g, an Activity [11] of 0.28 mg and an Activity [12] of 0.24 mg. It also gave an Activity [13] of 2.53 g, an Activity [14] of 6.3 U/min and an Activity [15] of 2.76 g. For the same molecule, the Activity [16] was 0.3 mg, the Activity [17] was 0.35 mg and the Activity [18] was 0.29 mg. It also gave an Activity [19] of 0.35 mg, an Activity [20] of 9.26 g and an Activity [21] of 0.2 mg. It also gave an Activity [22] of 44%, an Activity [23] of 0.49 mg and an Activity [24] of 0.46 mg. It also gave an Activity [25] of 0.22 mg, an Activity [26] of 0.19 mg and an Activity [27] of 9.81 g. The Activity [28] was 4.14 g.

With `COc1ccc2c(c1)c(CCNC(C)=O)c1sc(-c3c(-c4ccccc4)cnn(-c4ccccc4)c3=N)nn12` the Activity [29] was 0.38 mg, the Activity [30] was 3.2 g and the Activity [31] was 10.03 g. It also gave an Activity [32] of 0.2 mg, an Activity [33] of 0.25 mg and an Activity [34] of 4.21 U. It also gave an Activity [35] of 0.36 mg, an Activity [36] of 0.36 mg and an Activity [37] of 4.31 g. The Activity [38] was 4.96 g, the Activity [39] was 0.35 mg and the Activity [40] was 0.48 mg. For the same molecule, the Activity [41] was 0.37 mg, the Activity [42] was 0.17 mg and the Activity [43] was 0.4 mg. The Activity [44] was 5.5 U/min, the Activity [45] was 0.31 mg and the Activity [46] was 65%. The Activity [47] was 0.21 mg, the Activity [48] was 0.51 mg and the Activity [49] was 0.32 mg. For the same molecule, the Activity [50] was 3.15 g, the Activity [51] was 0.47 mg and the Activity [52] was 10.23 g. The Activity [53] was 9.74 U/min, the Activity [54] was 0.39 mg and the Activity [55] was 8.68 g. For the same molecule, the Activity [56] was 3.03 U.
